Experimental findings from US9820972B2, “Antiviral compounds highly effective as HCV-NS5A inhibitor” (priority 2013, dated 2017) are described below.

For the assay, the system named is GT-1a of NS5A Replicon. Kind of assay: HCV double reporter gene (Renilla luciferase) replicon assay, GT-1a. The following applies: read-out: EC50 For GT-1a of NS5A Replicon. The class given is cell-based, Hepatitis C virus (HCV). How it is done:
Antiviral Assay for Inhibition Activity (EC50):
The study is completed by a new constructed double reporter genes replicon assay system, the capacity of viral replicon in infected cell is determined by detecting the reporter gene Renilla luciferase. The relationship of reporter genes, HCV RNA replicon and viral proteins is well linear. 8 gradient concentrations for 2-fold dilution, 3 wells, 3 times repetition and 1 or 2 control drugs are set to finally determine EC50 of compound.
THF was distilled from sodium metal and benzophenone. DCM, pentane and hexane were distilled form calcium hydride. Special raw material and intermediate in the invention were ordered by contract synthesis from Zannan SciTech Co., Let in China, others reagents were purchased from Shanghai reagent company, Aldrich, Acros etc. As intermediates or products during the synthesis is not required for the reaction and other tests the next step, the synthesis is repeated until a sufficient number of times. The invention of the prepared compounds of […] (HCV NS5A) inhibitory activity test was performed by CRO service units such as WuXi AppTec etc.

[1] abbreviates: Hepatitis C virus, GT1A, GT-1a replicon, class symbols.

Where two headings read alike, the source gives them in different places. A value given as a limit tells only on which side of the number the result lay.

As a reminder, the EC50 is the concentration that produces a half-maximal response. Turning to `COC(=O)N[C@H](C(=O)N1CC(OC(=O)N2Cc3cc4c(cc3C2)OCO4)CC1c1nc2cc(-c3ccc4c(c3)C(F)(F)c3cc(-c5c[nH]c([C@@H]6CCCN6C(=O)[C@@H](NC(=O)OC)C(C)C)n5)ccc3-4)ccc2[nH]1)C(C)C` (some centres unmarked) [Compound 6br], under setting [1], the EC50 lay in the range of 0.001 to 0.999 nM.

As to `COC(=O)N[C@H](C(=O)N1CCCC1c1nc2cc(-c3ccc4c(c3)C(F)(F)c3cc(-c5c[nH]c([C@@H]6CN(C(=O)N7Cc8cc9c(cc8C7)OCO9)CN6C(=O)[C@@H](NC(=O)OC)C(C)C)n5)ccc3-4)ccc2[nH]1)C(C)C` (some centres unmarked) [Compound 6bs], the EC50 under setting [1] was > 50 nM.

In the case of `COC(=O)N[C@H](C(=O)N1CC(OC(=O)N2Cc3cc4c(cc3C2)OCO4)CC1c1nc(-c2ccc3c(ccc4cc(-c5c[nH]c([C@@H]6CCCN6C(=O)[C@@H](NC(=O)OC)C(C)C)n5)ccc43)c2)c[nH]1)C(C)C` (some centres unmarked) [Compound 6bt], the EC50 under setting [1] fell in the range of 0.001 to 0.999 nM.

For `COC(=O)N[C@H](C(=O)N1CC(OC(=O)N2Cc3cc4c(cc3C2)OCO4)CC1c1nc(-c2ccc(-c3cccc4c(-c5c[nH]c([C@@H]6CCCN6C(=O)[C@@H](NC(=O)OC)C(C)C)n5)cccc34)cc2)c[nH]1)C(C)C` (some centres unmarked) [Compound 6bu], the EC50 under setting [1] was 0.001 to 0.999 nM.

`COC(=O)N[C@H](C(=O)N1CN(C(=O)N2Cc3cc4c(cc3C2)OCO4)C[C@H]1c1ncc(-c2ccc(-c3cccc4c(-c5cnc([C@@H]6CCCN6C(=O)[C@@H](NC(=O)OC)C(C)C)[nH]5)cccc34)cc2)[nH]1)C(C)C` [Compound 6bv]: the EC50 under setting [1] was > 50 nM.

As to `CC(C)(C)OC(=O)N[C@H](C(=O)N1CCC[C@H]1c1nc(-c2ccc(-c3ccc(-c4cnc([C@@H]5C[C@@H](OC(=O)N6Cc7ccc8c(c7C6)OCO8)CN5C(=O)[C@@H](NC(=O)OC(C)(C)C)C(C)(C)C)[nH]4)cc3)cc2)c[nH]1)C(C)(C)C` [Compound 6c], under setting [1], the EC50 is > 50 nM.

Take `COC(=O)N[C@@H](C(=O)N1CC=CC1c1nc(-c2ccc(-c3ccc(-c4c[nH]c(C5C=CCN5C(=O)[C@H](NC(=O)OC)c5ccccc5)n4)cc3)cc2)c[nH]1)c1ccccc1` (some centres unmarked) [Compound 6ca]: the EC50 under setting [1] fell in the range of 0.001 to 0.999 nM.

On to `COC(=O)N[C@H](C(=O)N1CCCC1c1ncc(-c2ccc3c(c2)cc2n3C(c3ccccc3)Oc3cc(-c4cnc([C@@H]5C=CCN5C(=O)[C@@H](NC(=O)OC)C(C)C)[nH]4)ccc3-2)[nH]1)C(C)C` (some centres unmarked) [Compound 6cd], for which the EC50 under setting [1] was > 50 nM.

Take `CN(C)C(=O)N[C@@H](C(=O)N1CC=CC1c1nc(-c2ccc(-c3ccc(-c4c[nH]c(C5CCCN5C(=O)[C@H](NC(=O)N(C)C)c5ccccc5)n4)cc3)cc2)c[nH]1)c1ccccc1` (some centres unmarked) [Compound 6ce]: the EC50 under setting [1] lay in the range of 0.001 to 0.999 nM.

As to `CNC(=O)N[C@@H](C(=O)N1CC=CC1c1nc(-c2ccc(-c3ccc(-c4c[nH]c(C5CCCN5C(=O)[C@H](NC(=O)NC)c5ccccc5)n4)cc3)cc2)c[nH]1)c1ccccc1` (some centres unmarked) [Compound 6cf], the EC50 under setting [1] lay within 0.001 to 0.999 nM.

On to `CC(C)C(NC(=O)N(C)C)C(=O)N1CC=C[C@H]1c1nc(-c2ccc(-c3ccc(-c4c[nH]c(C5CCCN5C(=O)[C@@H](NC(=O)N(C)C)C(C)C)n4)cc3)cc2)c[nH]1` (some centres unmarked) [Compound 6cg], for which the EC50 under setting [1] lay in the range of 0.001 to 0.999 nM.

`CNC(=O)NC(C(=O)N1CC=C[C@H]1c1nc(-c2ccc(-c3ccc(-c4c[nH]c(C5CCCN5C(=O)[C@@H](NC(=O)NC)C(C)C)n4)cc3)cc2)c[nH]1)C(C)C` (some centres unmarked) [Compound 6ch]: under “GT-1a replicon, class symbols”, the EC50 lay within 0.001 to 0.999 nM.

On to `COC(=O)N[C@H](C(=O)N1CCCC1c1nc(-c2ccc(-c3ccc(-c4c[nH]c([C@@H]5C=CCN5C(=O)C(NC(=O)N(C)C)C(C)C)n4)cc3)cc2)c[nH]1)C(C)C` (some centres unmarked) [Compound 6ci], for which the EC50 under setting [1] is 0.001 to 0.999 nM.

For the molecule `CNC(=O)NC(C(=O)N1CC=C[C@H]1c1nc(-c2ccc(-c3ccc(-c4c[nH]c(C5CCCN5C(=O)[C@@H](NC(=O)OC)C(C)C)n4)cc3)cc2)c[nH]1)C(C)C` (some centres unmarked) [Compound 6cj], under setting [1], the EC50 was 0.001 to 0.999 nM.

In the case of `COC(=O)N[C@H](C(=O)N1CCC[C@H]1c1ncc(-c2ccc(-c3ccc(-c4cnc([C@@H]5CN(C(=O)N6Cc7ccc(OC)c(OC)c7C6)CN5C(=O)[C@@H](NC(=O)OC)C(C)C)[nH]4)cc3)cc2)[nH]1)C(C)C` [Compound 6cq], under setting [1], the EC50 was in the range of 1 to 49.9 nM.

As to `COC(=O)N[C@H](C(=O)N1CC=C[C@H]1c1ncc(-c2ccc(-c3ccc(-c4cnc([C@@H]5CNCN5C(=O)[C@@H](NC(=O)OC)C(C)C)[nH]4)cc3)cc2)[nH]1)C(C)C` [Compound 6cv], under setting [1], the EC50 fell in the range of 0.001 to 0.999 nM.

Regarding `COC(=O)N[C@H](C(=O)N1CC=C[C@H]1c1ncc(-c2ccc(-c3ccc(-c4cnc([C@@H]5CN(C(=O)OC(C)(C)C)CN5C(=O)[C@@H](NC(=O)OC)C5CCCCC5)[nH]4)cc3)cc2)[nH]1)C(C)C` [Compound 6cy], the EC50 under setting [1] lay in the range of 0.001 to 0.999 nM.

Consider `COC(=O)N[C@H](C(=O)N1CCC[C@H]1c1nc(-c2ccc(-c3ccc(-c4cnc([C@@H]5C[C@@H](OC(=O)N6Cc7ccc8c(c7C6)OCO8)CN5C(=O)[C@@H](NC(=O)OC(C)(C)C)C(C)C)[nH]4)cc3)cc2)c[nH]1)C(C)C` [Compound 6d], for which, under setting [1], the EC50 lay within 1 to 49.9 nM.

Regarding `COC(=O)N[C@H](C(=O)N1CC=C[C@H]1c1ncc(-c2ccc(-c3ccc(-c4cnc([C@@H]5CN(S(=O)(=O)C6CC6)CN5C(=O)[C@@H](NC(=O)OC)C(C)C)[nH]4)cc3)cc2)[nH]1)C(C)C` [Compound 6da], under setting [1], the EC50 is 0.001 to 0.999 nM.

For the molecule `COC(=O)N[C@H](C(=O)N1CC=C[C@H]1c1ncc(-c2ccc(-c3ccc(-c4cnc([C@@H]5CN(C(=O)OC)CN5C(=O)[C@@H](NC(=O)OC)C(C)C)[nH]4)cc3)cc2)[nH]1)C(C)C` [Compound 6db], the EC50 under setting [1] was in the range of 0.001 to 0.999 nM.

As for `COC(=O)N[C@H](C(=O)N1CCC[C@H]1c1ncc(-c2ccc(-c3ccc(-c4cnc([C@@H]5CCCN5C(=O)[C@@H](NC(=O)N(C)C)C(C)C)[nH]4)cc3)cc2)[nH]1)C(C)C` [Compound 6de], under setting [1], the EC50 lay in the range of 0.001 to 0.999 nM.

As to `COC(=O)NC(C(=O)N1CC=C[C@H]1c1ncc(-c2ccc(-c3ccc(-c4cnc([C@@H]5CCCN5C(=O)[C@@H](NC(=O)OC)C(C)C)[nH]4)cc3)cc2)[nH]1)C1CCCC1` (some centres unmarked) [Compound 6dh], the EC50 under setting [1] fell in the range of 0.001 to 0.999 nM.

`COC(=O)NC(C(=O)N1CC=C[C@H]1c1ncc(-c2ccc(-c3ccc(-c4cnc([C@@H]5CCCN5C(=O)[C@@H](NC(=O)OC)C(C)C)[nH]4)cc3)cc2)[nH]1)C1CCCCC1` (some centres unmarked) [Compound 6di]: the EC50 (GT-1a replicon, class symbols) fell in the range of 0.001 to 0.999 nM.

For `COC(=O)NC(C(=O)N1CC=C[C@H]1c1ncc(-c2ccc(-c3ccc(-c4cnc([C@@H]5CCCN5C(=O)[C@@H](NC(=O)OC)C(C)C)[nH]4)cc3)cc2)[nH]1)C1CCCCC1` (some centres unmarked) [Compound 6dj], where the note is “GT-1a replicon, class symbols”, the EC50 fell in the range of 1 to 49.9 nM.

With `COC(=O)N[C@H](C(=O)N1CC=C[C@H]1c1ncc(-c2ccc(-c3ccc(-c4cnc([C@@H]5CCCN5C(=O)[C@@H](NC(=O)OC)C5CCCCC5)[nH]4)cc3)cc2)[nH]1)C1CCCCC1` [Compound 6dk], the EC50 under setting [1] lay within 0.001 to 0.999 nM.

Take `COC(=O)N[C@H](C(=O)N1CC=C[C@H]1c1ncc(-c2ccc(-c3ccc(-c4cnc([C@@H]5C=CCN5C(=O)[C@@H](NC(=O)OC)C5CCCCC5)[nH]4)cc3)cc2)[nH]1)C1CCCCC1` [Compound 6dm]: the EC50 under setting [1] lay within 0.001 to 0.999 nM.

With `COC(=O)N[C@H](C(=O)N1CC=C[C@H]1c1ncc(-c2ccc(-c3ccc(-c4cnc([C@@H]5CCCN5C(=O)[C@@H](NC(=O)OC)C5CCCCC5)[nH]4)cc3)cc2)[nH]1)C1CCCC1` [Compound 6dn], the EC50 under setting [1] was in the range of 0.001 to 0.999 nM.

Turning to `COC(=O)N[C@H](C(=O)N1CC=C[C@H]1c1ncc(-c2ccc(-c3ccc(-c4cnc([C@@H]5CCCN5C(=O)[C@@H](NC(=O)OC)C5CCCC5)[nH]4)cc3)cc2)[nH]1)C1CCCC1` [Compound 6dp], the EC50 under setting [1] lay in the range of 0.001 to 0.999 nM.

`COC(=O)N[C@H](C(=O)N1CCC(O)[C@H]1c1ncc(-c2ccc(-c3ccc(-c4cnc([C@@H]5C=CCN5C(=O)[C@@H](NC(=O)OC)C(C)C)[nH]4)cc3)cc2)[nH]1)C(C)C` (some centres unmarked) [Compound 6dr]: the EC50 under setting [1] fell in the range of 0.001 to 0.999 nM.

In the case of `COC(=O)N[C@H](C(=O)N1CC=C[C@H]1c1nc(-c2ccc(-c3ccc(-c4cnc([C@@H]5CC6(CN5C(=O)[C@@H](NC(=O)OC)C(C)C)OCCO6)[nH]4)cc3)cc2)c[nH]1)C(C)C` [Compound 6dt], under setting [1], the EC50 lay within 0.001 to 0.999 nM.

On to `COC(=O)N[C@H](C(=O)N1CC=C[C@H]1c1nc(-c2ccc(-c3ccc(-c4cnc([C@@H]5CC6(CN5C(=O)[C@H](NC(=O)OC)c5ccccc5)OCCO6)[nH]4)cc3)cc2)c[nH]1)C(C)C` [Compound 6du], for which the EC50 under setting [1] fell in the range of 0.001 to 0.999 nM.

For `COC(=O)N[C@@H](C(=O)N1CC=C[C@H]1c1nc(-c2ccc(-c3ccc(-c4cnc([C@@H]5CC6(CN5C(=O)[C@H](NC(=O)OC)c5ccccc5)OCCO6)[nH]4)cc3)cc2)c[nH]1)c1ccccc1` [Compound 6dv], the EC50 under setting [1] fell in the range of 0.001 to 0.999 nM.

As for `COC(=O)N[C@H](C(=O)N1CC2(C[C@H]1c1ncc(-c3ccc(-c4ccc(-c5c[nH]c([C@@H]6C=CCN6C(=O)[C@H](NC(=O)OC)c6ccccc6)n5)cc4)cc3)[nH]1)OCCO2)C(C)C` [Compound 6dw], the EC50 under setting [1] was in the range of 0.001 to 0.999 nM.

Consider `COC(=O)N[C@@H](C(=O)N1CC=C[C@H]1c1ncc(-c2ccc(-c3ccc(-c4c[nH]c([C@@H]5CCCN5C(=O)[C@H](NC(=O)OC)c5ccccc5)n4)cc3)cc2)[nH]1)c1ccccc1` [Compound 6dz], for which, under setting [1], the EC50 was 0.001 to 0.999 nM.

On to `COC(=O)N[C@H](C(=O)N1C[C@H](OC(=O)N2Cc3ccc4c(c3C2)OCO4)C[C@H]1c1nc(-c2ccc(-c3ccc(-c4cnc([C@@H]5C[C@@H](OC(=O)N6Cc7ccc8c(c7C6)OCO8)CN5C(=O)[C@@H](NC(=O)OC)C(C)C)[nH]4)cc3)cc2)c[nH]1)C(C)C` [Compound 6e], for which the EC50 (Hepatitis C virus, GT1A) is > 50 nM.
